Experimental data: patent publication US9475817B2 (BRISTOL-MYERS SQUIBB COMPANY, priority 2012, dated 2016)

Experiments:
[1] = biological target: CK1ε (Homo sapiens (Human), UniProt P49674); assay: CK1ε kinase assay (Caliper LabChip, fluoresceinated peptide substrate); format: biochemical; conditions: 200 pM CK1ε, 50 μM ATP, 1.5 μM peptide substrate, 22 hours room temperature
Description: (§1) CK1ε and CK1δ Kinase Assays
(§2) The kinase assay was performed in V-bottom 384-well plates. […] The reaction was incubated at room temperature for 22 hours and terminated by adding 45 μl of 35 mM EDTA to each sample. […] Compounds were dissolved at 10 mM in dimethylsulfoxide (DMSO) and evaluated at eleven concentrations. IC50 values were derived by non-linear regression analysis.

[2] = biological target: CK1δ (Homo sapiens (Human), UniProt P48730); assay: CK1δ kinase assay (Caliper LabChip, fluoresceinated peptide substrate); format: biochemical; conditions: 200 pM CK1δ, 50 μM ATP, 1.5 μM peptide substrate, 22 hours room temperature
Sequence of CK1δ (P48730 whole entry): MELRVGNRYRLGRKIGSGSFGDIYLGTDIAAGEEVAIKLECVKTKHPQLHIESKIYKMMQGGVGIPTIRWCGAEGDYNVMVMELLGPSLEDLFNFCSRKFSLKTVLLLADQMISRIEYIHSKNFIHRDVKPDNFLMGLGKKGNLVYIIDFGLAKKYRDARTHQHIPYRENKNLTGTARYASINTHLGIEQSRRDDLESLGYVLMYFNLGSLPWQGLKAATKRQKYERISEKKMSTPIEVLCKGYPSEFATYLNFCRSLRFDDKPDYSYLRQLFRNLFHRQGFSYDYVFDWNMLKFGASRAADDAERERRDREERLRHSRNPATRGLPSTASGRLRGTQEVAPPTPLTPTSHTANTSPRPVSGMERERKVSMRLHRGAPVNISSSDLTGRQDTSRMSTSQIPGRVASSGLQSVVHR
Description: as §1, §2

Sequence of CK1ε (P49674 whole entry): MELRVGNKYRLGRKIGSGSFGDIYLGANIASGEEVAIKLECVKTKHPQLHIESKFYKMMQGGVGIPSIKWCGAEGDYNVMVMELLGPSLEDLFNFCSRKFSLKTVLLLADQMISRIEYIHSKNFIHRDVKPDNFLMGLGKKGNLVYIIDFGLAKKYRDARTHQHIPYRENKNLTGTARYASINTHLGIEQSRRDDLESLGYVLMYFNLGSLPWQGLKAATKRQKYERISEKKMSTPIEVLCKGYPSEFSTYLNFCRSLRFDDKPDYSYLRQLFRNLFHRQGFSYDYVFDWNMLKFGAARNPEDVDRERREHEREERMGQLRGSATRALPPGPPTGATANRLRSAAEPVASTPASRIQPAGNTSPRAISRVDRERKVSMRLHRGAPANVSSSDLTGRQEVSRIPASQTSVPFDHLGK

SMILES	IC50 [1]	IC50 [2]
Cn1cc(-c2ccc3nc(NC(=O)c4ccc(OCC(F)(F)F)nc4)cn3n2)c(-c2ccc(F)cc2)n1 [Compound 68, N-(6-(3-(4-fluorrophenyl)-1-methyl-1H-pyrazol-4-yl)imidazo[1,2-b]pyridazin-2-yl)-6-(2,2,2-trifluoroethoxy)nicotinamide]	0.0281 µM	0.0044 µM
Cn1cc(-c2ccc3nc(NC(=O)c4ccnc(N5CCOCC5)c4)cn3n2)c(-c2ccc(F)cc2)n1 [Compound 69, N-(6-(3-(4-fluorophenyl)-1-methyl-1H-pyrazol-4-yl)imidazo[1,2-b]pyridazin-2-yl)-2-morpholinoisonicotinamide]	0.0048 µM	0.0023 µM
Cn1cc(-c2ccc3nc(NC(=O)c4ccc(CCN5CCCC5)nc4)cn3n2)c(-c2ccc(F)cc2)n1 [Compound 72, N-(6-(3-(4-fluorophenyl)-1-methyl-1H-pyrazol-4-yl)imidazo[1,2-b]pyridazin-2-yl)-6-(2-(pyrrolidin-1-yl)ethyl)nicotinamide]	0.0278 µM	0.01 µM
COc1ccc(C(=O)Nc2cn3nc(-c4cn(C)nc4-c4ccc(F)cc4)ccc3n2)c(OC)n1 [Compound 75, N-(6-(3-(4-fluorophenyl)-1-methyl-1H-pyrazol-4-yl)imidazo[1,2-b]pyridazin-2-yl)-2,6-dimethoxynicotinamide]	0.363 µM	0.041 µM
COc1ncc(C(=O)Nc2cn3nc(-c4cn(C)nc4-c4ccc(F)cc4)ccc3n2)cn1 [Compound 84, N-(6-(3-(4-fluorophenyl)-1-methyl-1H-pyrazol-4-yl)imidazo[1,2-b]pyridazin-2-yl)-2-methoxypyrimidine-5-carboxamide]	1.02 µM	0.435 µM
Cn1cc(-c2ccc3nc(NC(=O)C4CC4)cn3n2)c(-c2ccc(F)cc2)n1 [Compound 85, N-(6-(3-(4-fluorophenyl)-1-methyl-1H-pyrazol-4-yl)imidazo[1,2-b]pyridazin-2-yl)cyclopropanecarboxamide]	0.0501 µM	0.007 µM
Cn1cc(-c2ccc3nc(NC(=O)C4CCCC4)cn3n2)c(-c2ccc(F)cc2)n1 [Compound 86, N-(6-(3-(4-fluorophenyl)-1-methyl-1H-pyrazol-4-yl)imidazo[1,2-b]pyridazin-2-yl)cyclopentanecarboxamide]	0.0157 µM	0.0056 µM
Cn1cc(-c2ccc3nc(NC(=O)C4CCCCCC4)cn3n2)c(-c2ccc(F)cc2)n1 [Compound 88]	0.0105 µM	0.0042 µM
Cn1cc(-c2ccc3nc(NC(=O)C4CCC4)cn3n2)c(-c2ccc(F)cc2)n1 [Compound 89, N-(6-(3-(4-fluorophenyl)-1-methyl-1H-pyrazol-4-yl)imidazo[1,2-b]pyridazin-2-yl)cyclobutanecarboxamide]	0.0258 µM	0.0071 µM
Cn1cc(-c2ccc3nc(NC(=O)C45CCCC(CCC4)C5)cn3n2)c(-c2ccc(F)cc2)n1 [Compound 92, N-(6-(3-(4-fluorophenyl)-1-methyl-1H-pyrazol-4-yl)imidazo[1,2-b]pyridazin-2-yl)bicyclo[3.3.1]nonane-1-carboxamide]	0.0105 µM	0.0055 µM
Cn1cc(-c2ccc3nc(NC(=O)C45CC6CC(CC(C6)C4)C5)cn3n2)c(-c2ccc(F)cc2)n1 [Compound 93, (3,5,7)-N-(6-(3-(4-fluorophenyl)-1-methyl-1H-pyrazol-4-yl)imidazo[1,2-b]pyridazin-2-yl)adamantane-1-carboxamide]	0.006 µM	0.0041 µM
Cn1cc(-c2ccc3nc(NC(=O)C45CC6CC(C)(CC(C)(C6)C4)C5)cn3n2)c(-c2ccc(F)cc2)n1 [Compound 94, (1,3,5S7)-N-(6-(3-(4-fluorophenyl)-1-methyl-1H-pyrazol-4-yl)imidazo[1,2-b]pyridazin-2-yl)-3,5-dimethyladamantane-1-carboxamide]	0.0344 µM	0.0083 µM
Cc1nc(C(F)(F)F)ccc1C(=O)Nc1cn2nc(-c3cn(C)nc3-c3ccc(F)cc3)ccc2n1 [Compound 95, N-(6-(3-(4-fluorophenyl)-1-methyl-1H-pyrazol-4-yl)imidazo[1,2-b]pyridazin-2-yl)-2-methyl-6-(trifluoromethyl)nicotinamide]	0.0172 µM	0.0065 µM
Cn1cc(-c2ccc3nc(NC(=O)CC(F)(F)F)cn3n2)c(-c2ccc(F)cc2)n1 [Compound 99, 3,3,3-trifluoro-N-(6-(3-(4-fluorophenyl)-1-methyl-1H-pyrazol-4-yl)imidazo[1,2-b]pyridazin-2-yl)propanamide]	0.0473 µM	0.0103 µM
O=C(Nc1cn2nc(-c3cn(C4CC4)nc3-c3ccc(F)cc3)ccc2n1)C1CC1 [Compound 101, N-(6-(1-Cyclopropyl-3-(4-fluorophenyl)-1H-pyrazol-4-yl)imidazo[1,2-b]pyridazin-2-yl)cyclopropanecarboxamide]	0.17 µM	0.0281 µM
O=C(Nc1cn2nc(-c3cn(C4CC4)nc3-c3ccc(F)cc3)ccc2n1)c1ccncc1 [Compound 102, N-(6-(1-Cyclopropyl-3-(4-fluorophenyl)-1H-pyrazol-4-yl)imidazo[1,2-b]pyridazin-2-yl)isonicotinamide]	0.0099 µM	0.003 µM
O=C(Nc1cn2nc(-c3cn(C4CC4)nc3-c3ccc(F)cc3)ccc2n1)c1csc(-c2ccncc2)n1 [Compound 103, N-(6-(1-Cyclopropyl-3-(4-fluorophenyl)-1H-pyrazol-4-yl)imidazo[1,2-b]pyridazin-2-yl)-2-(pyridin-4-yl)thiazole-4-carboxamide]	0.0749 µM	0.0085 µM
O=C(Nc1cn2nc(-c3cn(C4CC4)nc3-c3ccc(F)cc3)ccc2n1)c1ccnc(F)c1 [Compound 104, N-(6-(1-cyclopropyl-3-(4-fluorophenyl)-1H-pyrazol-4-yl)imidazo[1,2-b]pyridazin-2-yl)-2-fluoroisonicotinamide]	0.0152 µM	0.0032 µM

Results, then the compound that gave them:

IC50 [1]	IC50 [2]	SMILES
0.0066 µM	0.0028 µM	CN(C)c1ccc(C(=O)Nc2cn3nc(-c4cn(C)nc4-c4ccc(F)cc4)ccc3n2)cn1 [Compound 66, 6-(dimethylamino)-N-(6-(3-(4-fluorophenyl)-1-methyl-1H-pyrazol-4-yl)imidazo[1,2-b]pyridazin-2-yl)nicotinamide]
0.0133 µM	0.0142 µM	COc1cccc(C(=O)Nc2cn3nc(-c4cn(C)nc4-c4ccc(F)cc4)ccc3n2)n1 [Compound 67, N-(6-(3-(4-fluorophenyl)-1-methyl-1H-pyrazol-4-yl)imidazo[1,2-b]pyridazin-2-yl)-6-methoxypicolinamide]
0.0047 µM	0.002 µM	Cn1cc(-c2ccc3nc(NC(=O)c4cncc(O)c4)cn3n2)c(-c2ccc(F)cc2)n1 [Compound 70, N-(6-(3-(4-fluorophenyl)-1-methyl-1H-pyrazol-4-yl)imidazo[1,2-b]pyridazin-2-yl)-5-hydroxynicotinamide]
0.0173 µM	0.0038 µM	Cn1cc(-c2ccc3nc(NC(=O)c4ccc(-n5cccn5)nc4)cn3n2)c(-c2ccc(F)cc2)n1 [Compound 71, N-(6-(3-(4-fluorophenyl)-1-methyl-1H-pyrazol-4-yl)imidazo[1,2-b]pyridazin-2-yl)-6-(1H-pyrazol-1-yl)nicotinamide]
0.0064 µM	0.0026 µM	Cc1ccncc1C(=O)Nc1cn2nc(-c3cn(C)nc3-c3ccc(F)cc3)ccc2n1 [Compound 73, N-(6-(3-(4-fluorophenyl)-1-methyl-1H-pyrazol-4-yl)imidazo[1,2-b]pyridazin-2-yl)-4-methylnicotinamide]
0.232 µM	0.0346 µM	Cn1cc(-c2ccc3nc(NC(=O)c4ccc(C(F)(F)F)cn4)cn3n2)c(-c2ccc(F)cc2)n1 [Compound 74, N-(6-(3-(4-fluorophenyl)-1-methyl-1H-pyrazol-4-yl)imidazo[1,2-b]pyridazin-2-yl)-5-(trifluoromethyl) picolinamide]
0.064 µM	0.0119 µM	CCc1ccc(C(=O)Nc2cn3nc(-c4cn(C)nc4-c4ccc(F)cc4)ccc3n2)nc1 [Compound 76, 5-ethyl-N-(6-(3-(4-fluorrophenyl)-1-methyl-1H-pyrazol-4-yl)imidazo[1,2-b]pyridazin-2-yl)picolinamide]
0.011 µM	0.0033 µM	Cc1ncccc1C(=O)Nc1cn2nc(-c3cn(C)nc3-c3ccc(F)cc3)ccc2n1 [Compound 78, N-(6-(3-(4-fluorophenyl)-1-methyl-1H-pyrazol-4-yl)imidazo[1,2-b]pyridazin-2-yl)-2-methylnicotinamide]
0.0056 µM	0.0054 µM	Cn1cc(-c2ccc3nc(NC(=O)c4ccccc4)cn3n2)c(-c2ccc(F)cc2)n1 [Compound 81, N-(6-(3-(4-fluorophenyl)-1-methyl-1H-pyrazol-4-yl)imidazo[1,2-b]pyridazin-2-yl)benzamide]
0.0715 µM	0.0033 µM	Cn1cc(-c2ccc3nc(NC(=O)c4ncc(-c5ccccn5)s4)cn3n2)c(-c2ccc(F)cc2)n1 [Compound 82, N-(6-(3-(4-fluorophenyl)-1-methyl-1H-pyrazol-4-yl)imidazo[1,2-b]pyridazin-2-yl)-5-(pyridin-2-yl)thiazole-2-carboxamide]
0.042 µM	0.0118 µM	Cn1cc(-c2ccc3nc(NC(=O)c4ccccn4)cn3n2)c(-c2ccc(F)cc2)n1 [Compound 96, N-(6-(3-(4-fluorophenyl)-1-methyl-1H-pyrazol-4-yl)imidazo[1,2-b]pyridazin-2-yl)picolinamide]
0.0288 µM	0.0094 µM	Cn1cc(-c2ccc3nc(NC(=O)c4cc(O)ncn4)cn3n2)c(-c2ccc(F)cc2)n1 [Compound 100, N-(6-(3-(4-fluorophenyl)-1-methyl-1H-pyrazol-4-yl)imidazo[1,2-b]pyridazin-2-yl)-6-hydroxypyrimidine-4-carboxamide]
